Measured values as given in patent publication US6544967B2, “Method for inhibiting bone resorption” (Merck & Co., Inc., priority 1997, dated 2003).

Tested on: canine esophagus tissue
Assay: Esophageal irritation potential, dog model (esophageal infusion in simulated gastric juice, histopathology)
Format: in vivo
Conditions: for Histopathology of esophagus (photomicrographs): 50 mL; for Esophageal irritation potential: low dosages on consecutive days (Group 7 risedronate, Group 8 tiludronate)
Protocol: The esophageal irritation potential of the bisphosphonates is evaluated using a dog model.
The following solutions are prepared:
(1) simulated gastric juice (pH about 2), i.e. the control solution.
(5) simulated gastric juice (pH about 2) containing about 0.20 mg/mL of risedronate sodium on a risedronic acid active basis.
(6) simulated gastric juice (pH about 2) containing about 4.0 mg/mL of tiludronate disodium on a tiludronic acid active basis.
The simulated gastric juice is prepared by dissolving about 960 mg of pepsin (L-585,228000B003, Fisher Chemical) in about 147 mL of 0.90 (wt %) NaCl (aqueous), adding about 3 mL of 1.0 M HCl (aqueous), and adjusting the volume to about 300 mL with deionized water. The pH of the resulting solution is measured and if necessary is adjusted to about 2 using 1.0 M HCl (aqueous) or 1.0 M NaOH (aqueous).
The animals used in the experiments are anesthetized and administered about 50 mL of the appropriate solution over about 30 minutes by infusion into the esophagus using an infusion pump and a rubber catheter. The following treatment experiments are run:
Group 1: This control group contains four animals. Each animal is administered a dosage of about 50 mL of simulated gastric juice [solution (1)] on each of five consecutive days. The animals are sacrificed immediately after the last dose is administered.
Group 2: This group contains four animals. […] The animals are sacrificed immediately after the last dose is administered.
Group 3: This group contains five animals. […] The animals are sacrificed about 24 hours after the dose is administered.
Group 4: This group contains five animals. […] The animals are sacrificed about 7 days after the dose is administered.
Group 5: This group contains six animals. […] The animals are administered a total of four dosages. The animals are sacrificed about 7 days after the last dose is administered.
Group 6: This group contains six animals. […] The animals are administered a total of eight dosages. The animals are sacrificed about four days after the last dose is administered.
Group 7: This group contains eight animals. Each animal is administered a dosage of about 50 mL of simulated gastric juice containing about 0.20 mg/mL of risedronate [solution (5)] on each of five consecutive days. The animals are sacrificed immediately after the last dose is administered.
Group 8: This group contains four animals. Each animal is administered a dosage of about 50 mL of simulated gastric juice containing about 4.0 mg/mL of tiludronate on each of five consecutive days. The animals are sacrificed immediately after the last dose is administered.
The esophagus from each sacrificed animal is removed and prepared for histopathology using standard techniques by embedding the tissue in paraffin, staining with hematoxylin and eosin. The sections are examined microscopically.

Compound	Histo-pathology (Group 2 (n = 4): 0.20 mg/mL, 50 mL in simulated gastric juice pH about 2, 1X daily for 5 days, sacrifice immediately after last dosing, monosodium trihydrate)	Histo-pathology (Group 3 (n = 5): 0.80 mg/mL, 50 mL in simulated gastric juice, 1X, sacrifice 24 hours after dosing, monosodium trihydrate)	Histo-pathology (Group 4 (n = 5): 0.80 mg/mL, 50 mL in simulated gastric juice, 1X, sacrifice 7 days after dosing, monosodium trihydrate)	Histo-pathology (Group 5 (n = 6): 0.80 mg/mL, 50 mL in simulated gastric juice, 1X weekly for a total of 4 doses, sacrifice 7 days after last dosing, monosodium trihydrate)	Histopathology of esophagus (photomicrographs) (Group 6: 0.40 mg/mL, twice per week for four weeks (eight dosages), sacrifice about four days after last dose)	Histopathology of esophagus (photomicrographs) (Group 8: 4.0 mg/mL, five consecutive days, sacrifice immediately after last dose)	Esophageal irritation potential	Histo-pathology (Group 7 (n = 8): 0.20 mg/mL, 50 mL in simulated gastric juice, 1X daily for 5 days, sacrifice immediately after last dosing)
NCCCC(O)(P(=O)(O)O)P(=O)(O)O [Alendronate, 4-amino-1-hydroxybutylidene-1,1-bisphosphonic acid monosodium trihydrate]	deep ulceration of the epithelial surface and marked submucosal inflammation and vacuolation	intact epithelial surface with very slight submucosal inflammation and vacuolation	intact epithelium with either minimal inflammation (two of the five animals) or no inflammation (three of the five animals) and no vacuolation	normal with an intact epithelium and absence of inflammatory cells in the submucosa	deep ulceration of the epithelial surface and marked submucosal inflammation and vacuolation			
O=P(O)(O)C(Sc1ccc(Cl)cc1)P(=O)(O)O [Tiludronate, (4-chlorophenyl)thiomethane-1,1-disphosphonic acid]						slight ulceration of the epithelial surface and slight submucosal inflammation and vacuolation	high	
O=P(O)(O)C(O)(Cc1cccnc1)P(=O)(O)O [Risedronate, 1-hydroxy-2-(3-pyridinyl)-ethylidene-1,1-bisphosphonic acid]							high	deep ulceration of the epithelial surface and marked submucosal inflammation and vacuolation
